Reference: patent US9623049B2, “Immunotherapy using redirected allogeneic cells” (YEDA RESEARCH AND DEVELOPMENT CO. LTD., priority 2010, dated 2017)

Experiments:
[1] = FACS analysis of blood and spleen lymphocytes after transfer of allogeneic T-bodies with or without FTY720; assay type: in vivo, Balb/c mice
Description: Prior to splenocyte staining, RBC were lysed using ACK buffer. Lymphocytes (1×10^6) were incubated with the appropriate antibodies in staining buffer (5% BSA, 0.05% sodium azide in phosphate-buffered saline (PBS)) for 30 minutes on ice. Alternatively, Annexin V staining buffer was used as indicated. CFSE (Carboxyfluorescein succinimidyl ester) labeling was performed according to the manufacturer's instructions (Molecular Probes. Eugene, Oreg.). Cells were analyzed by flow cytometry (LSRII, Becton Dickinson. Mountain View. Calif.) and FacsDiva software (Becton Dickinson).
This enhanced persistence of allogeneic T-bodies can explain the increased survival of tumor bearing mice treated with allogeneic T-bodies and FTY720.

[2] = test system: Renca-erbb2 pulmonary metastases
Description: After determining safe regimens for adoptive transfer, the inventors tested the efficacy of tumor rejection by CR redirected T cells. The inventors used the Renca-erbb2, renal cancer cell line, stably transfected with erbB2 (HER2) which was injected intravenously into Balb/c mice to generate experimental pulmonary metastases. As effectors, the inventors used splenocytes from transgenic mice expressing a HER2 specific chimeric receptor (based on the N29 antibody derived scFv, FIGS. 7A-B) under the CD2 promoter (which is expressed in T and NK cells [8]). The HER2-specific transgenic mice were kept on two backgrounds: C57Bl and Balb/c (named C57Bl-N29 and Balb-N29 respectively). Wild type Balb/c mice were injected with the Renca-erbb2 on day 1, irradiated on day 7, and HER2 specific T-bodies were injected on day 8 (and also on day 10 and 12 in some cases).
The inventors therefore compared the efficacy of allogeneic (C57Bl-N29) to syngeneic (Balb-N29) T-bodies, and to ensure that allogeneic cells mediate a specific antitumor response (and not just an allogeneic response), they also tested the effect of activated wild type C57Bl cells. Previous experiments in the inventors' lab have established that the minimal regimen which provides significant therapeutic benefit (boosting median survival to 90 days) using syngeneic Balb-N29 is irradiation with 200 rad and transfer of 3 doses of 10 million cells each (abbreviated as 200/30 regimen) complemented with low dose IL-2 (1000 u) twice daily. The purpose was to test if one can provide therapeutic benefit in this model using allogeneic C57Bl-N29 cells. The inventors used the initial regimen as a starting point with one important difference: instead of using naïve transgenic cells, the cells were pre-activated before transfer for 48 hours with concanavalin A. The reason for the change was to simulate a more clinically relevant situation in which lymphocytes will need to be activated in order to facilitate retroviral transduction with the chimeric receptor.

Renca-Her2/neu tumor = assay: Survival of Renca-Her2/neu tumor bearing mice after irradiation and T-body transfer (Example 10); assay type: in vivo, Balb/c mice
Description: Adoptive transfer experiments. Mice were injected with […] Renca-Her2/neu cells iv on day 1. All mice (including the control group) were irradiated on day 7 with 200 or 400 rads (137Cs source). Prior to transfer, all T cells were activated with Con-A 1 μg/ml for 48 hours, and then cultured for 3-5 more days with 350 u/ml IL-2. Either 30×10^6 or 108 T cells were transferred in a split dose on days 8 and 10. In some experiments, FTY720 was injected ip (0.3 mg/kg) on days 8-18. Donor cells were either from wildtype mice (Balb/c or C57BL/6) or from N29 CAR transgenic mice (Balb/c or C57BL/6 backgrounds). In some cases, T-bodies from wild type mice (Balb/c or C57Bl) were transduced with the CAR.
To investigate the potential of allogeneic adoptive cell therapy, the BALB/c derived mouse renal cell carcinoma (Renca) cell line expressing the human Her2/neu was used. Following intravenous inoculation of the tumor, experimental metastases mainly developed in the lungs, yet, as was reported in similar systems (ref. 62, 63) extra-pulmonary metastases also developed. […] Adoptive transfer of T cells redirected with a Her2/neu-specific chimeric antigen receptor (‘T-bodies’) was performed on days 8 and 10 (FIG. 21). The CAR is composed of a scFv fragment derived from the Her2/Neu-specific N29 antibody fused to a CD28 co-activation moiety and FcRγ signaling sequences (ref. 8). […] T-bodies were obtained from transgenic (Tg) mice of BALB/c (Balb-N29) or C57BL/6 (Black-N29) background, or by the transduction of wild type T cells with a retrovector harboring the Her2/neu-specific CAR. Transduced T cells were activated as part of their transduction, while naïve transgenic (Tg) T cells were also activated to facilitate comparison with transduced T cells.

S1P3 [3] = biological target: T1, S1P3 (Homo sapiens, UniProt Q99500); details: read-out: ED50 (the source's name); cited from earlier work
T1 sequence (Q99500 whole entry, species assumed): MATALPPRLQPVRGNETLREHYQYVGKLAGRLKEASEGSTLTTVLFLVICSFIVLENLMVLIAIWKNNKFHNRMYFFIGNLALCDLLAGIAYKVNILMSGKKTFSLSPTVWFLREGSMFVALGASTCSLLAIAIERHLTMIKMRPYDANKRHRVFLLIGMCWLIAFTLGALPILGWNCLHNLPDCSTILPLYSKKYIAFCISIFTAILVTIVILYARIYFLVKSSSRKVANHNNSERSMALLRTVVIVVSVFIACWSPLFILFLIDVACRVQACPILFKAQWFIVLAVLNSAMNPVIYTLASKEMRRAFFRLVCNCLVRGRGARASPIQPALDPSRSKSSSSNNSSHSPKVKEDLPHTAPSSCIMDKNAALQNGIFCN

S1P1 = S1P1 (Homo sapiens, UniProt P21453); details: high affinity for S1P1; cited from earlier work
Sequence of S1P1 (P21453 whole entry): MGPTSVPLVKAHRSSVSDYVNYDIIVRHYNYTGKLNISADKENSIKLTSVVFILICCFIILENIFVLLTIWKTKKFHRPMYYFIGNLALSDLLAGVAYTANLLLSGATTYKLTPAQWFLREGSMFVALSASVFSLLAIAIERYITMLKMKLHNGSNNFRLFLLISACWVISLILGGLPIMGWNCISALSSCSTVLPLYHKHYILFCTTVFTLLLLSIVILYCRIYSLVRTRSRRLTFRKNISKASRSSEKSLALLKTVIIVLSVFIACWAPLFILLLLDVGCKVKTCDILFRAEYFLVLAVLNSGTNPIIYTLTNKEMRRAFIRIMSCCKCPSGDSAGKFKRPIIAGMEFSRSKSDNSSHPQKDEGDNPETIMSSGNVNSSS

[4] = in vivo; cited from earlier work
S1P2 = S1P2 (Homo sapiens, UniProt O95136); details: at concentrations up to 10 μM; cited from earlier work
Sequence of S1P2 (O95136 whole entry, species assumed): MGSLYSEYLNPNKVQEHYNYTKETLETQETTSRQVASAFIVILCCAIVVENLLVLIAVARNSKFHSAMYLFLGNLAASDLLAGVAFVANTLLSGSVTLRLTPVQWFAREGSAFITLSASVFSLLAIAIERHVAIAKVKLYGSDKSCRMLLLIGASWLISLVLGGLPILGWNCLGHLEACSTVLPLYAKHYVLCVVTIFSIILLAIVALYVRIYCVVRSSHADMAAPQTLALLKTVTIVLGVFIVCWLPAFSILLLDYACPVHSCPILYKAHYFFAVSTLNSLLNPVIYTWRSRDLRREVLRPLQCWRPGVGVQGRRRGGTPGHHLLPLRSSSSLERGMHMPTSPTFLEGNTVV

S1P5 receptors = S1P5 receptors (Homo sapiens, UniProt Q9H228); details: at concentrations up to 10 μM; cited from earlier work
Sequence of S1P5 receptors (Q9H228 whole entry): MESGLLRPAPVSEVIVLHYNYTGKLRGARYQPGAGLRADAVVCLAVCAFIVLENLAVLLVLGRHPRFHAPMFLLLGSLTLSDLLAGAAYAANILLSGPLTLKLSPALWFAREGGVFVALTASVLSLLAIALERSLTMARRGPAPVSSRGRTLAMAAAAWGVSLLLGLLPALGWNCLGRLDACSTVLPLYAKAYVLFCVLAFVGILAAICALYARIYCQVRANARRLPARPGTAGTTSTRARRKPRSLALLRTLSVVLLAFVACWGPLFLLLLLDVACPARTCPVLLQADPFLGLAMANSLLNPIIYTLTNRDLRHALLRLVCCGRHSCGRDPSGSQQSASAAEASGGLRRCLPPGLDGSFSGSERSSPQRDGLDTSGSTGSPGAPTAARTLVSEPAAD

S1P4 = biological target: T2, S1P4 (Homo sapiens, UniProt O95977); details: at concentrations up to 10 μM; cited from earlier work
T2 sequence (O95977 1-384): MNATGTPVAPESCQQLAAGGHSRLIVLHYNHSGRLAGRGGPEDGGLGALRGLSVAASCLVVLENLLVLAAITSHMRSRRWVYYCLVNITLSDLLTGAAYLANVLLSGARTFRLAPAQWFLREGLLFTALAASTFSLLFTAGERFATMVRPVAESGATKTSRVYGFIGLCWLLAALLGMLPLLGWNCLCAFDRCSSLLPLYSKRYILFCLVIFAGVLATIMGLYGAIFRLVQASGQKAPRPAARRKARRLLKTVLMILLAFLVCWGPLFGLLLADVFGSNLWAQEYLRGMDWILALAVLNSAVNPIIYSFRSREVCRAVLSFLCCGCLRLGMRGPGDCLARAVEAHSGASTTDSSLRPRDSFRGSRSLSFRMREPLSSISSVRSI

S1P3 [5] = biological target: T1, S1P3; details: at concentrations up to 10 μM; cited from earlier work
[6] = 400 rads and 10^8 allo-T-bodies with FTY720

Structure (SMILES): CCCCCCCCc1ccc(CCC(N)(CO)CO)cc1.Cl [FTY720, 2-amino-2-[2-(4-octylphenyl)ethyl]propane-1,3-diol]
- lymphocyte egression to the blood ([1]; 4 days after transfer of allogeneic T-bodies, CD3 staining of blood): inhibited lymphocyte egression to the blood
- allo-T-bodies in the spleen ([1]; day 7 after transfer, anti-H2Kb staining, with vs without FTY720): higher numbers of allo-T-bodies detected in the spleen on day 7
- long term survivors ([2]; 200/100 regimen, C57Bl-N29 with FTY720): 80%
- surviving after day 250 ([2]; 400/30 regimen, C57Bl-N29 with FTY720): ≥ 50%
- median survival ([2]; 400/30 regimen, C57Bl-N29 with FTY720 0.3 mg/kg ip daily days 8-18): not reached
- GVHD mortality (mice died) ([2]; 400/30 regimen, activated wild type C57Bl cells with FTY720 0.3 mg/kg ip daily days 8-18): 2/6
- tumor bearing mice survived long term ([2]; temporary FTY720 treatment added to allogeneic cells (FIG. 18)): 50-80%
- effect of FTY720 alone on survival of tumor bearing mice (Renca-Her2/neu tumor; 0.3 mg/kg i.p for the first 10 days after irradiation, no T-bodies): not to affect the survival of tumor bearing mice
- long term survival (>350 days) (Renca-Her2/neu tumor; [6]): most of the remaining mice survived long term
- mice died of GvHD (Renca-Her2/neu tumor; [6]): 16%
- mice surviving long term (>350 days) (Renca-Her2/neu tumor; 400 rads and 30x10^6 allogeneic T-bodies with FTY720 0.3 mg/kg ip 10 days): 58%
- median survival (Renca-Her2/neu tumor; 400 rads and 30x10^6 syngeneic T-bodies with FTY720 0.3 mg/kg ip 10 days): 90 days

Structure (SMILES): NC(CO)(CCc1ccc(Sc2cccc(Oc3ccccc3)c2)cc1Cl)COP(=O)(O)O (stereo not shown) [KRP-203 phosphate, 2-ammonio-4-(2-chloro-4-(3-phenoxyphenylthio)phenyl)-2-(hydroxymethyl)butyl hydrogen phosphate]
- EC50 (S1P3 [3]): > 1000 nM
- ED50 (S1P1): in the nM range
- reduction of incidence of bradycardia compared to FTY720 [4]: 10 fold

Structure (SMILES): FC(F)(F)c1cccc(-c2noc(-c3cc(-c4ccccc4)c(C(F)(F)F)s3)n2)c1 [SEW2871, 5-[4-Phenyl-5-(trifluoromethyl)thiophen-2-yl]-3-[3-(trifluoromethyl)phenyl]1,2,4-oxadiazole]
- receptor activation (S1P2): does not activate
- receptor activation (S1P5 receptors): does not activate
- receptor activation (S1P4): does not activate
- receptor activation (S1P3 [5]): does not activate
